The METLIN SMRT retention time set (Domingo-Almenara et al. 2019)

assay: gradient 5% acetonitrile 3 min, to 50% in 2 min, to 85% in 15 min, held 3 min, 100 µL/min; details: column: Zorbax Extend-C18 2.1 x 50 mm; eluents: water / acetonitrile, 0.1% formic acid
Outline: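 Retention times come from adduct peaks that were picked computationally and then checked by hand. The standards, pure and pooled in mixtures of ~100 molecules, were run on a Zorbax Extend-C18 column (2.1 × 50 mm, 1.8 μm) at 100 μL/min with water and acetonitrile, each with 0.1% formic acid. Detection was by quadrupole time-of-flight mass spectrometry in positive and negative ionization mode, with a dead volume of 40 μL and a dwell volume of 900 μL.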

Row | Structure (SMILES) | RP-LC retention time [s]
1 | CCn1cnc(S(=O)(=O)N2CCC(C(=O)NC3CCCCCC3)CC2)c1 | 737
2 | CCNc1cc(N2CCCC(CCC(=O)Nc3ccc4c(c3)OCCO4)C2)ncn1 (stereo unspecified) | 674
3 | Cc1ccc(N2C=C(C(=O)N3CCC(C)CC3)S(=O)(=O)c3ccccc32)cc1F | 974
4 | Cn1nc(N2CCC(NC(=O)c3ccc[nH]c3=O)C2)ccc1=O (stereo unspecified) | 575
5 | Cc1ccc(NC(=O)Cn2c(=O)n(-c3ccc(F)cc3)c(=O)c3c2cc(C)n3C)cc1C | 888
6 | Cc1cccc(NC(=O)Cn2c(N3CCOCC3)nc(C)cc2=O)c1 | 672
7 | CC(C)n1ccc(-c2nnc(NC(=O)COc3ccc(Cl)cc3Cl)o2)n1 | 793
8 | CCSc1nnc(NC(=O)CSc2nccn2-c2ccc(OC)cc2OC)s1 | 682
9 | C=CCN1CCc2c(cc(O)c(O)c2Br)[C@@H](c2ccccc2)C1 | 670
10 | CN1C(=O)c2cccn2CC1CNS(=O)(=O)c1ccccc1 (stereo unspecified) | 668
11 | COCCCNC(=O)C1CCN(c2ncccc2S(=O)(=O)N2CCCCC2)CC1 | 728
12 | CCC(C)N1CCN(C(=O)CCc2ccc3c(c2)CN(C(=O)C2CC2)CCO3)CC1 (stereo unspecified) | 598
13 | CCC(=O)N1CCc2cc(N3CC(C(=O)NC(C)c4ccccc4)CC3=O)ccc21 (stereo unspecified) | 750
14 | CCOc1cc(=O)n2c(c1C(=O)Nc1cccc(SC)c1)CCCC2 | 767
15 | Cc1ccc(-n2ncc3c(N4CCN(C)CC4)ncnc32)cc1Cl | 607
16 | CC(C)C(=O)N1CC(c2noc(C3CCCN3CC3CC3)n2)C1 (stereo unspecified) | 579
17 | Cc1nc(CC(=O)Nc2ccc(F)cc2F)cs1 | 739
18 | CCOC(=O)c1c(S(=O)(=O)N2CCC(C(=O)Nc3cccc(OC)c3)CC2)c(C)n(CC)c1C | 891
19 | CCc1ccccc1NC(=O)N1CCN(c2cc(C)nc(N3CCOCC3)n2)CC1 | 695
20 | CCNC(=O)CCc1nc2ccccc2n(CC(=O)Nc2cc(OC)cc(OC)c2)c1=O | 737
21 | CCCN(CCC)C(=O)Cn1c(CN(C)C(C)=O)nc2ccccc21 | 630
22 | COc1ccc(N2C(=O)CC(c3ccc(OC)c(OC)c3)CC2=O)cc1Cl | 845
23 | Cn1nc(C(=O)N2CCOCC2)c2c1CCN(C(=O)Nc1ccccc1Br)C2 | 674
24 | COC(=O)c1c(NCCc2c[nH]c3ccccc23)c2cc(F)ccc2[nH]c1=O | 770
25 | Cc1cc(C)cc(NC(=O)NCc2ccnc(N3CCSCC3)c2)c1 | 660

Row | Structure (SMILES) | RP-LC retention time [s]
26 | FC(F)(F)c1ccc(C2CNCCO2)cc1 (stereo unspecified) | 570
27 | CCc1ccc(NC(=O)c2cn(C)nc2S(=O)(=O)N2CCSCC2)cc1 | 1040
28 | CCn1cc(C2=CCN(S(=O)(=O)c3ccc(OC)cc3)CC2)c2cccnc21 | 986
29 | O=[N+]([O-])c1ccc(CSc2ncnc3c2ncn3[C@@H]2O[C@H](CO)[C@H](O)C2O)cc1 (stereo partly specified) | 759
30 | Cc1cc(C)c(NC(=O)Cn2c(N(C)Cc3ccccc3)nc(C)cc2=O)c(C)c1 | 860
31 | CCCCNC(=O)C(=O)NCC1OCCc2ccccc21 (stereo unspecified) | 879
32 | Cc1nn2c(S(=O)(=O)N3CCCCC3)c(C(C)C)nc2s1 | 911
33 | CCC1CN(CC(=O)N2CCN(c3ccccn3)CC2)c2ccccc2S1 (stereo unspecified) | 723
34 | COCc1nnc(-c2cc(C)cc(C)c2)o1 | 857
35 | COc1ccc(Cn2nc3ccc(S(=O)(=O)N4CCOCC4)cn3c2=O)cc1F | 811
36 | COCCN1CCn2cc(S(=O)(=O)Nc3cc(C)cc(C)c3)cc2C1=O | 745
37 | O=C(Nc1cccn2cnnc12)c1cnccn1 | 590
38 | O=C(CS(=O)(=O)Cc1ccccc1)Nc1nc(-c2ccccc2)cs1 | 956
39 | Cc1ccc2cc(CCC(=O)NCCCN3CCc4ccccc4C3)c(=O)[nH]c2c1 | 614
40 | CCn1cc(C)c(C(=O)O)c1CC(=O)Nc1ccc2c(c1)OCCO2 | 762
41 | CC1CN=C2C=C(N3CCN(C(=O)Nc4ccc(C(F)(F)F)cc4)CC3)N=CN21 (stereo unspecified) | 688
42 | COc1ccc(N2CCN(CC(O)c3ccc(C)cc3)CC2)cc1 (stereo unspecified) | 677
43 | Cc1cccc(N2C(=O)N(Cc3cccc(F)c3)S(=O)(=O)c3cccnc32)c1 | 1090
44 | CCCCn1cc(S(=O)(=O)N2CCN(c3ccc(C)cc3)CC2)c2cccnc21 | 1220
45 | CCCNC(=O)C1CCCN(c2ccc(SCC(=O)Nc3ccccc3C(F)(F)F)nn2)C1 (stereo unspecified) | 690
46 | Cn1c(=O)n(C)c2cc(N3CCCCC3)c(NC(=O)c3cccs3)cc21 | 890
47 | CCN(C(=O)C1CCCN1S(=O)(=O)c1cc2c(cc1Cl)NC(=O)CO2)c1cccc(C)c1 (stereo unspecified) | 816
48 | OC1(c2ccccn2)CCOC2(CCN(Cc3c(F)cccc3Cl)CC2)C1 (stereo unspecified) | 560
49 | CCCc1c(C(=O)O)nnn1Cc1ccc(OC)cc1 | 710
50 | COC(=O)c1cc(S(=O)(=O)N2CCCC2C(=O)NC2CCCCCC2)cn1C (stereo unspecified) | 881

Further lines, results first:

Row | RP-LC retention time [s] | Structure (SMILES)
51 | 839 | O=C(NCc1ccco1)c1ccc(-c2noc(C3CC3)n2)cc1
52 | 742 | COc1ccc(CNC(=O)c2nc3cccnc3n(C)c2=O)cc1
53 | 804 | O=C(NCc1cccc(Cl)c1)C1CCCN(c2ncnc3c2nc2n3CCCCC2)C1 (stereo unspecified)
54 | 692 | O=C(NCC1CCCO1)c1ncoc1-c1ccccc1C(=O)N1CCCCC1 (stereo unspecified)
55 | 654 | COCCCNC(=O)N1CCC(C)(c2noc(C3CCOCC3)n2)CC1
56 | 686 | Cc1ccnc(NS(=O)(=O)c2ccc(NC(=O)c3ccc(-n4cccn4)nn3)cc2)n1
57 | 731 | CC(CNC(=O)c1cc2c(s1)CN(C1CC1)C2)c1ccccc1 (stereo unspecified)
58 | 962 | COc1ccc(-c2noc(CN3C(=O)COc4ccc(Cl)cc43)n2)c(OC)c1
59 | 814 | CCc1nc(OCC(=O)NCc2ccc(SC)cc2)c2ccccc2n1
60 | 702 | Cc1ccc(CNC(=O)C2CCN(S(=O)(=O)c3cc(-c4noc(C)n4)cs3)CC2)cc1
61 | 694 | CC(NC(=O)c1cccnc1)c1nc(-c2ccccc2)no1 (stereo unspecified)
62 | 713 | Cc1ccn2cc(C(=O)NCc3ccc(OC(C)C)cc3)nc2c1
63 | 814 | CCc1ccccc1NC(=O)C1(C)Oc2cccnc2N(C)C1=O (stereo unspecified)
64 | 1050 | CCc1nc2cc(-c3noc(CCc4c[nH]c5ccccc45)n3)ccc2o1
65 | 836 | Cc1nc(-c2noc(-c3ccc(F)cc3)n2)cn1CC(=O)Nc1ccccc1
66 | 666 | O=C(NCc1ccccc1)C1CC(=O)N(C2CN(Cc3ccc(C(F)(F)F)cc3)C2)C1 (stereo unspecified)
67 | 1270 | CCCOc1nc2ccccc2nc1N1CCCC(C(=O)NCc2ccccc2Cl)C1 (stereo unspecified)
68 | 1220 | CCOc1nc2ccccc2nc1N1CCCC(C(=O)NCc2ccccc2Cl)C1 (stereo unspecified)
69 | 1180 | COc1ccccc1-c1nc(Cn2nnc(-c3nc(-c4ccc(SC)cc4)no3)c2C)c(C)o1
70 | 744 | CCOc1ccc(NC(=O)C2CC(=O)N(c3n[nH]c4cccc(F)c34)C2)cc1 (stereo unspecified)
71 | 819 | CCOc1cc(C(=O)Nc2c(-c3ccc(F)cc3)nc3cc(C)ccn23)cc(OCC)c1OCC

Row | RP-LC retention time [s] | Structure (SMILES)
72 | 1140 | CCc1nc2cc(-c3noc(-c4ccc(CS(=O)(=O)c5ccccc5)cc4)n3)ccc2o1
73 | 870 | CCCN1C(=O)COc2ccc(-c3noc(CNC(=O)c4ccccc4)n3)cc21
74 | 623 | Cc1cnnn1-c1ccc(C(=O)Nc2nccs2)cc1
75 | 918 | COc1ccc(NC(=O)C2(C)Oc3cccnc3N(C(C)C)C2=O)cc1 (stereo unspecified)
76 | 984 | CCc1ccc(OC(C)C(=O)N(Cc2ccc(C)o2)C2CCS(=O)(=O)C2)cc1 (stereo unspecified)
77 | 820 | CCNC(=O)c1cc(-c2ccc(F)cc2)n(C)c1C
78 | 870 | Cc1ccc(-c2nc3nc(C)cc(C)n3c2Nc2ccc(C(C)C)cc2)cc1
79 | 692 | O=C(Nc1ccc(OC(F)(F)F)cc1)C1CCCN(C(=O)c2cc(-c3ccncc3)n[nH]2)C1 (stereo unspecified)
80 | 897 | COc1ccccc1Cc1noc(C2CN(S(=O)(=O)c3c(C)noc3C)C2)n1
81 | 861 | CCN1C(=O)C(C)(C(=O)Nc2ccc(C(=O)OC)cc2)Oc2cccnc21 (stereo unspecified)
82 | 712 | CC(Oc1ccc2c(c1)OCO2)C(=O)NCCn1nc(-c2cccs2)ccc1=O (stereo unspecified)
83 | 862 | O=C(c1ccncc1)N1CCc2c([nH]c3ccccc23)C1c1ccccc1 (stereo unspecified)
84 | 648 | Nc1cc(C2CCN(C(=O)c3ccccc3F)CC2)no1
85 | 599 | CN(C)c1ccc(CNC(=O)CCC(=O)N2CCCn3nc(-c4cccn4C)cc32)cc1
86 | 664 | Clc1ccc(Cl)c(-c2ccc(CNCc3cccnc3)o2)c1
87 | 804 | CCc1ccc(C(=O)CC2(O)C(=O)Nc3ccc(C)cc32)cc1 (stereo unspecified)
88 | 811 | Cn1nccc1C(=O)N1CCC(c2nc(-c3ccc(F)cc3)no2)CC1
89 | 977 | CCCN1C(=O)COc2cc(-c3noc(C(=O)NC4CCCC4)n3)ccc21
90 | 1250 | Cc1c(Cl)cccc1NC(=O)C1CCCN(c2nc3c(s2)c(C)nn3-c2ccccc2)C1 (stereo unspecified)
91 | 824 | COc1ccc(-n2ccc(=O)c(-c3nc(-c4cccc(OC)c4OC)no3)n2)cc1
